Values joined by “and” are separate entries in the source; they are usually repeats but may differ in a detail not shown here. Identical values can stand only once. “Also recorded” adds a separate entry of the source.
Assays:
Type in all cases: cell-based, human
[1] = system: general tyrosine kinase activity in HCT116 colon cancer cells; test: General tyrosine kinase activity (ELISA) in HCT-116 cells; conditions: 72 hours, IC50 concentration
Procedure: Takara Universal Tyrosine Kinase Assay Kit is used to determine the effects of 11 2-indolinone compounds (Y1, Y2, Y3, Y4, Y5, Y8, […], […], Y21, Y23, 20C, 22C) on general tyrosine kinase activity in cancer cells. Cells are seeded in 6-well plates (4.10^5 cells/well) and the IC50 concentration of each selected molecule is performed to the cells for 48 or 72 hours. Cells in the control group are incubated with medium only. At the end of the incubation period, the cells in each well are washed with PBS and cells are removed from the wells using a cell scraper via 1 ml of the extraction buffer in the kit. The cell lysate is transferred to ependorf tubes and centrifuged at 10.000 g for 10 minutes at +4° C. and the supernatant is used as a sample for activity determination. […] The reaction is finished by adding 100 μl of stop solution to each well and the optical density in each well is measured at 405 nm with a microplate reader (BioTek, USA). The tyrosine kinase activity in each sample is calculated from the standard curve obtained from the absorbance values of the standard solutions with the kit (Chan W Y, Lau P M, Yeung K W, Kong S K. The second generation tyrosine kinase inhibitor dasatinib induced eryptosis in human erythrocytes—An in vitro study. Toxicol Lett. 2018; 295:10-21). […]

HCT-116 cells = test: MTT cytotoxicity, colon cancer cells HCT-116
In short: (§1)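 Cells were seeded at 5000 per well and treated next day with compound at 0.1, 1, 5 and 10 μM (final) for 48 and/or 72 h, with matched DMSO controls. MTT was added for 4 h and formazan was dissolved in DMSO and read at 570/630 nm. % viability against control gave IC50 from dose-response curves.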

HT-29 cells = test: MTT cytotoxicity, colon cancer cells HT-29; conditions: MTT
In short: as §1

[2] = system: general tyrosine kinase activity in MIA PaCa-2 pancreas cancer cells; test: General tyrosine kinase activity (ELISA) in MIAPaCa-2 cells; conditions: 72 hours, IC50 concentration
Procedure: (§2) Takara Universal Tyrosine Kinase Assay Kit is used to determine the effects of 11 2-indolinone compounds (Y1, Y2, Y3, Y4, Y5, Y8, […], […], Y21, Y23, 20C, 22C) on general tyrosine kinase activity in cancer cells. Cells are seeded in 6-well plates (4.10^5 cells/well) and the IC50 concentration of each selected molecule is performed to the cells for 48 or 72 hours. Cells in the control group are incubated with medium only. At the end of the incubation period, the cells in each well are washed with PBS and cells are removed from the wells using a cell scraper via 1 ml of the extraction buffer in the kit. The cell lysate is transferred to ependorf tubes and centrifuged at 10.000 g for 10 minutes at +4° C. and the supernatant is used as a sample for activity determination. After the extracts obtained from the control and experimental groups are diluted 1:25, 40 μl extracts is transferred to two wells in the 96-well plate in the kit. In addition, the standard solution in the kit is diluted according to the kit instructions and each concentration is transferred 40 μl into three wells. 10 μl of 40 mM ATP-2Na solution is added to all wells and the plate is incubated at 37° C. for 30 minutes. After incubation, all wells are washed 4 times with wash buffer. 100 μl of blocking solution is added to each well and incubated again at 37° C. for 30 minutes. After incubation, the liquid in the wells is discarded and 50 μl of anti-phosphotyrosine-HRP solution is added to each well and incubated at 37° C. for 30 minutes. The wells are washed again four times with wash buffer and 100 μl of HRP-substrate solution (TMBZ) is added to each well and incubated at 37° C. for 15 minutes. The reaction is finished by adding 100 μl of stop solution to each well and the optical density in each well is measured at 405 nm with a microplate reader (BioTek, USA). The tyrosine kinase activity in each sample is calculated from the standard curve obtained from the absorbance values of the standard solutions with the kit (Chan W Y, Lau P M, Yeung K W, Kong S K. The second generation tyrosine kinase inhibitor dasatinib induced eryptosis in human erythrocytes—An in vitro study. Toxicol Lett. 2018; 295:10-21). This activity is normalized compared to the control group by dividing by the amount of protein in each sample.
(§3) The effects of 11 2-indolinone compounds (Y1, Y2, Y3, Y4, Y5, Y8, Y14, Y21, Y23, 20C and 22C) having the structure of formula (5), which are prominent with their cytotoxicity in A498, MIAPaCa-2 and HCT-116 cancer cell lines and nontoxic properties in healthy cells, on general tyrosine kinase activity in cancer cells are determined.

A498 cells = test: MTT cytotoxicity, kidney cancer cells A498; conditions: for selectivity index: MCF-10F/Beas2b vs A498
In short: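 5000 cells/well; compounds 0.1–10 μM (0.1, 1, 5, 10 μM), 48 and/or 72 h. MTT 5 mg/ml, 4 h; formazan in DMSO; OD 570/630 nm. % viability vs matched-DMSO control; IC50 from dose-response curves; cell-free MTT+compound blanks.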

MCF-10F/Beas2b cells = test: MTT cytotoxicity, healthy cells MCF-10F/Beas2b; conditions: cancer line not given; for Selectivite Index, MCF-10F/Beas2b (Table 2): MCF-10F/Beas2b vs colon or pancreas cancer cells; for Selectivite Index (SI), MCF-10F/Beas2b (Table 1): MCF-10F/Beas2b vs breast or kidney cancer cells
In short: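 Following seeding and next-day dosing at 0.1, 1, 5 and 10 μM, plates incubate 48 and/or 72 h. MTT is then applied for 4 h and dissolved crystals measured at 570 nm (630 nm reference); cell-free compound+MTT wells control for interference, and IC50 is calculated per compound.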

[3] = system: general tyrosine kinase activity in A498 kidney cancer cells; test: General tyrosine kinase activity (ELISA) in A498 cells; conditions: IC50 concentration
Procedure: as §2, with “After incubation, all wells are washed 4 times with wash buffer. 100 μl of blocking solution is added to each well and incubated again at 37° C. for 30 minutes. After incubation, the liquid in the wells is discarded and 50 μl of anti-phosphotyrosine-HRP solution is added to each well and incubated at 37° C. for 30 minutes. The wells are washed again four times with wash buffer and 100 μl of HRP-substrate solution (TMBZ) is added to each well and incubated at 37° C. for 15 minutes.” left out, “This activity is normalized compared to the control group by dividing by the amount of protein in each sample.” left out
as §3

[4] = no * mark (incubation time not specified)
[5] = MTT, no * mark (incubation time not specified)

Compound	tyrosine kinase activity compared to control [1]	IC50 (HCT-116 cells; [4]) [nM]	IC50 (HT-29 cells; [4]) [nM]	general tyrosine kinase activity compared to control [2]	IC50 (A498 cells; [5]) [nM]	Selectivite Index, MCF-10F/Beas2b (Table 2) (MCF-10F/Beas2b cells)	general tyrosine kinase activity compared to control ([3]; 72 h)	selectivity index (A498 cells)	Selectivite Index (SI), MCF-10F/Beas2b (Table 1) (MCF-10F/Beas2b cells)	IC50 (HCT-116 cells; Homo sapiens, HCT-116, no * mark (incubation time not given)) [nM]	IC50 (HT-29 cells; Homo sapiens, HT-29, no * mark (incubation time not given)) [nM]	general tyrosine kinase activity compared to control ([3]; 48 h)	IC50 (A498 cells; Homo sapiens, A498, MTT, no * mark (incubation time not given)) [nM]
O=C1/C(=C\c2c[nH]c3ccccc23)c2cc(OC(F)(F)F)ccc2N1Cc1ccccc1 [Y4]	did not cause a significant change	570	1750	significantly decreased; also recorded: decreased the general tyrosine kinase activity	4230	> 17.54 and > 18.87							
O=C1/C(=C\c2c[nH]c3ccccc23)c2ccccc2N1Cc1ccccc1 [Y1]		2640	1810	significantly decreased; also recorded: decreased the general tyrosine kinase activity	4110	> 23.25							
Cc1ccc2c(c1)/C(=C/c1c[nH]c3ccccc13)C(=O)N2Cc1cccc(F)c1 [Y8]		1210	5000	significantly decreased; also recorded: decreased the general tyrosine kinase activity	930	> 18.52	did not cause a significant change	> 11	> 10.75				
Cc1ccc2c(c1)/C(=C/c1c[nH]c3ccccc13)C(=O)N2Cc1ccccc1 [Y3]				significantly decreased; also recorded: decreased the general tyrosine kinase activity		> 76.92		> 11	> 11.49	2050	2430	significantly decreased; also recorded: decreased the general tyrosine kinase activity	870
